From patent US8586582B2, “PI3K/mTOR kinase inhibitors” (Xcovery Holding Company, LLC, priority 2008, dated 2013) come the findings set out here.

The target of this experiment is T1, mTOR kinase (Homo sapiens, UniProt P42345).
T1 construct: purchased Invitrogen Corp. (Madison, Wis., USA)
The experiment in a line: Z'-LYTE biochemical assay for mTOR (Invitrogen). Here is the method:
The Z′-LYTE® biochemical assay for mTOR
The mTOR kinase activity was assessed using the Z′-LYTE® biochemical assay of Invitrogen Corp. (Madison, Wis., USA).

T1 sequence (P42345 1360-2549 limits assumed): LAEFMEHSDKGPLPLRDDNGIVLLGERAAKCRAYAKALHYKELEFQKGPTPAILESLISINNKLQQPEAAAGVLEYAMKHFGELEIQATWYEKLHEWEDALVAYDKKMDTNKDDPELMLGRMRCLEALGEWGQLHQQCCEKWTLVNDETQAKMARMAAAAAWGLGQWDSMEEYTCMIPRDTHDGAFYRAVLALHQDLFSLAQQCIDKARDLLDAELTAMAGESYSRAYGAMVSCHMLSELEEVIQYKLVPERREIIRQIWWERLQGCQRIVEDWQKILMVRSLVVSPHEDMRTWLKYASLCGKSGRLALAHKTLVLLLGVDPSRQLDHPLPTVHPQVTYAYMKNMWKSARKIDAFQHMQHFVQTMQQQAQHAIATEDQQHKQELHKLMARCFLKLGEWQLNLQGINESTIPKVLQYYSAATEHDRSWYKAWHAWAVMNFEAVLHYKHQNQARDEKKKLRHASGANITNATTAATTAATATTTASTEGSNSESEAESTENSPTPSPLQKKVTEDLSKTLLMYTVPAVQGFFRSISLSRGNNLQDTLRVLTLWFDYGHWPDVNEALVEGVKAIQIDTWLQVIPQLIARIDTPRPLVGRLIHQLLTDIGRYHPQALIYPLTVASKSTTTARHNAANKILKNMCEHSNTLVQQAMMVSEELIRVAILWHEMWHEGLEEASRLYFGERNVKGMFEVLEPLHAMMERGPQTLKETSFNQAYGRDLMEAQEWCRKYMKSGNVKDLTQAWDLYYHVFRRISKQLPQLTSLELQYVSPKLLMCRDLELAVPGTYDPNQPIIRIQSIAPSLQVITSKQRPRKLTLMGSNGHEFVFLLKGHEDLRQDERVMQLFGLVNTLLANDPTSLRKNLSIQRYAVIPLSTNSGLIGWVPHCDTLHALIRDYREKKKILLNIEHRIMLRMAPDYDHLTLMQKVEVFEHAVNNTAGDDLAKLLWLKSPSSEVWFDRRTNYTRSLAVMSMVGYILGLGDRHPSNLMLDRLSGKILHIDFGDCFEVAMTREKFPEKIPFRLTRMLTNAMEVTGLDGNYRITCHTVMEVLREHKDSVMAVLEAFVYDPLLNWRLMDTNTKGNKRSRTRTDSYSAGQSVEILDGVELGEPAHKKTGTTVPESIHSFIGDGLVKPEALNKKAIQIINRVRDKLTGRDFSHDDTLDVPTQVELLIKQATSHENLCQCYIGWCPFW

As a reminder, the IC50 is the concentration needed to halve the response being measured. Low values mean higher potency, high ones lower potency. `Nc1ncc(-c2nc(N3CCOCC3)nc3c2cnn3C2CCOCC2)cn1` [Example 1, 5-(1-(2H-3,4,5,6-tetrahydropyran-4-yl)-6-morpholin-4-ylpyrazolo[4,5-e]pyrimidin-4-yl)pyrimidine-2-ylamine] gave an IC50 of less than 1 µM.
The compound `CN1CCN(C(=O)N2CCC(n3ncc4c(-c5cnc(N)nc5)nc(N5CCOCC5)nc43)CC2)CC1` [Example 4, 4-[4-(2-aminopyrimidin-5-yl)-6-morpholin-4-ylpyrazolo[5,4-d]pyrimidinyl]piperidyl 4-methylpiperazinyl ketone] returned a half-maximal inhibitory concentration (IC50) of less than 1 µM.
